Data as given in US20150258059A1, “ANTIMICROBIAL AND RADIOPROTECTIVE COMPOUNDS” (BioDiem, Ltd, priority 2001, published 2015).
Values after ≈ are worked out from the molar mass of the structure shown. Like-named read-outs stand apart in the source and are kept apart here.

Assays:
[1] = system: skin wounds infected by Streptococcus and Staphylococcus; assay: Treatment of infected wounds, human volunteers; type: in vivo; settings: 0.1% ointment for 3 days
Description: Human volunteers suffering from skin wounds infected by Streptococcus and Staphylococcus were treated with 0.1% Compounds (1) and (2) in an ointment base of vaseline, sheep fat, and sulfoxide.

Haemophilus influenzae = assay: NCCLS broth microdilution MIC/MBC; type: cell-based
Fusarium graminearum = assay: microbe, parasite or virus in culture; type: cell-based; settings: 48 h
Klebsiella oxytoca [2] = assay: Rate of kill, viable counts
[3] = system: Staphylococcus epidermidis BK-30; assay: Sensitivity of strains: suppression of growth; type: cell-based; settings: Compound (1) 1.0%; antibiotics disc method
physchem = settings: aqueous with cosolvent or surfactant or cyclodextrin
Candida albicans = assay: Rate of kill, viable counts
[4] = system: six bacterial test cultures; type: cell-based
S. aureus [5] = assay: Antibacterial activity in the presence of blood, macrodilution; type: cell-based
Clostridium difficile = assay: NCCLS broth microdilution MIC/MBC; type: cell-based; settings: Clostridioides difficile; Table 9
From the text: (§1) NCCLS-USA Standard Method—Broth microdilution (or macrodilution) (Mueller-Hinton).
(§2) Inoculum 1-4×10^4 cfu (or −4×10^5 cfu). Ciprofloxacin test control. Chlorhexidine values added for disinfectant and antiseptic activity comparison.

[6] = system: Acinetobacter calcoaceticus RMIT; assay: NCCLS broth microdilution MIC/MBC; type: cell-based; settings: for MIC: Acinetobacter calcoaceticus
From the text: as §1, §2

Campylobacter spp. = assay: NCCLS broth microdilution MIC/MBC; type: cell-based; settings: Table 9, 48 h
From the text: as §1, §2

Klebsiella oxytoca [7] = assay: NCCLS broth microdilution MIC/MBC; type: cell-based; settings: for MIC: Klebsiella oxytoca
From the text: as §1, §2

[8] = system: Aspergillus fumigatus asexual exospores; assay: Sporicidal activity; type: cell-based; settings: 512 μg/mL in water+Tween-20; 24 hrs and 6 hrs
Description: Aspergillus fumigatus asexual exospores
Compound (1) in water+Tween-20® was tested for sporicidal activity up to 24 hrs.

[9] = system: Staphylococcus aureus strain 674; assay: Impregnated agar serial double dilutions; settings: meat peptone agar
S. aureus [10] = assay: MIC in increasing concentrations of plasma; type: cell-based; settings: Staphylococcus aureus
From the text: (§3) […]. Serum binding is significant in drug distribution and bioavailability.
(§4) […]. Bactericidal activity is much more affected than inhibitory activity.

Streptococcus pyogenes = assay: MIC in increasing concentrations of plasma; type: cell-based
From the text: as §3, §4

Trichophyton rubrum = assay: NCCLS broth macro-dilution MIC/MFC (RPMI); type: cell-based; settings: Table 10, 7 day, 30° C.
Escherichia coli B-683 = assay: Sensitivity of strains: suppression of growth; type: cell-based; settings: Compound (1) 1.0%; antibiotics disc method
[11] = Blood levels after single-dose oral administration, UV spectroscopy; type: in vivo, Sprague-Dawley rats; settings: for concentration at 4 h / concentration at 8 h: Sprague-Dawley, rat, serum, oral, read-out: Blood Level of Compound (1), Mean
Description: The aim of this example was to establish absorption and blood levels of Compound (1) in the rat after a single-dose, oral administration.
Sprague-Dawley rats (6 w/o, delivered 30 Jan, 2001) were acclimatized for 6 days in the Animal Facility under standardized environmental conditions (22° C. ±3° C., rel hum 30-70%, artificial light, 12 hrs light/12 hrs dark). Rats were fed a conventional laboratory diet with food and water ad lib and caged 5 rats per cage.
Compound (1) was prepared as an aqueous suspension in sterile LPW. At higher concentrations the suspension was sonicated to reduce particle size sufficiently to pass through the gavage needle.
Compound (1) suspensions and the water control were administered at approx […], in a single. One control and five treatment rats were weighed immediately before each dose administration, the dose volume calculated and the dose delivered by gavage (22 gauge stainless steel, smooth-balled end attached to a syringe).
Approximately 100-200 μL of blood (microfuge tube) was removed from the tail at 4 and 8 hours. Tails were prewarmed using a heat lamp and snipped at the tip with a large scalpel. Blood was massaged into a microfuge tube. Twenty four hour blood samples were not attempted because of the difficulty of snipping scarred tails and the distress caused to rats.
Blood was allowed to clot, centrifuged in a microfuge for 3 minutes (speed 14) and the serum separated and stored at −20° C.
Samples for treatment groups and for controls were thus pooled and a mean level of Compound (1) for each treatment group determined.
Compound (1) was extracted (x2) from serum by toluene and absorbance measured at 370 nm (Hitachi U2000). A spiked control using 100 μg/mL Compound (1) in 50% methanol/water (V/V) and untreated controls were also assayed.

[12] = Table 19, 24 H, 35° C., O2-MICRO METHOD

C/C(=C\c1ccc2c(c1)OCO2)[N+](=O)[O-] [Compound (1)]
clearing of infected wound [1]: cleared the wound completely of pus | MIC (Haemophilus influenzae; Haemophilus influenzae, Table 9, 35° C., 24 hours, read-out: MIC): 0.125 mg/L (≈ 0.603 µM) | MIC (Haemophilus influenzae; Haemophilus influenzae, Table 17, 2 or 3 replicates, read-out: MIC): 0.125 mg/L (≈ 0.603 µM) | MMC (Haemophilus influenzae; Table 9, 35° C., 24 hours): 0.125 µg/mL | MMC (Haemophilus influenzae; Table 17, 2 or 3 replicates): 0.125 µg/mL | MIC (Haemophilus influenzae; [12]): 0.125 mg/L (≈ 0.603 µM) | MMC (Haemophilus influenzae; [12]): 0.125 µg/mL | MIC (Fusarium graminearum; Fusarium graminearum): 4 mg/L (≈ 19.3 µM) | MMC (Fusarium graminearum; Table 16, M38-P, 35° C.): 8 µg/mL | Log reduction in viable count (Klebsiella oxytoca [2]; 256 μg/mL): 0 | Log reduction in viable count (Klebsiella oxytoca [2]; 512 μg/mL): 0 | Suppression of Growth (+/−) [3]: + | solubility (physchem): 1 mg/mL (≈ 4830 µM) | Log reduction in viable count (Candida albicans; 128 μg/mL, in 6h): 2 in 6h | Log reduction in viable count (Candida albicans; 256 μg/mL, in 4h): 6 in 4h | Log reduction in viable count (Candida albicans; 512 μg/mL, at 2 h): 5.5 at 2 h | reduction (kill) (Candida albicans; within 2 hrs at 512 μg/mL): > 99.999% | reduction (kill) (Candida albicans; within 4 hours at 256 μg/mL): > 99.999% | Average zone of retardation [4]: 5.17 | MIC (S. aureus [5]; 5% blood): 16 mg/L | MMC (S. aureus [5]; 5% blood): 256 µg/mL | MIC (S. aureus [5]; 10% plasma): 16 mg/L | MMC (S. aureus [5]; 10% plasma): 256 µg/mL | MIC (S. aureus [5]; Staphylococcus aureus): 16 mg/L | MIC (Clostridium difficile): 4 mg/L (≈ 19.3 µM) | MIC ([6]; Table 9, 35° C., 24 hours): 128 mg/L (≈ 618 µM) | MIC ([6]; Table 17, 2 or 3 replicates): 128 mg/L (≈ 618 µM) | MMC ([6]; Table 9, 35° C., 24 hours): 256 µg/mL | MMC ([6]; Table 17, 2 or 3 replicates): 256 µg/mL | MIC (Campylobacter spp.; Campylobacter): 128 mg/L (≈ 618 µM) | MMC (Campylobacter spp.): 128 µg/mL | MIC (Klebsiella oxytoca [7]; Table 9, 35° C., 24 hours): 128 mg/L (≈ 618 µM) | MIC (Klebsiella oxytoca [7]; Table 17, 2 or 3 replicates): 128 mg/L (≈ 618 µM) | MMC (Klebsiella oxytoca [7]; Table 9, 35° C., 24 hours): 256 µg/mL | MMC (Klebsiella oxytoca [7]; Table 17, 2 or 3 replicates): 256 µg/mL | sporicidal activity [8]: killed A. fumigatus exospores at 24 hrs but not 6 hrs | Minimal % Compound (1) giving complete inhibition of test culture [9]: 0.015% | MIC (S. aureus [10]; 0% plasma in MHB): 4 mg/L (≈ 19.3 µM) | MIC (S. aureus [10]; 1% plasma in MHB): 4 mg/L (≈ 19.3 µM) | MIC (S. aureus [10]; 2.5% plasma in MHB): 8 mg/L (≈ 38.6 µM) | MIC (S. aureus [10]; 5% plasma in MHB): 8 mg/L (≈ 38.6 µM) | MIC (S. aureus [10]; 10% plasma in MHB): 16 mg/L (≈ 77.2 µM) | MIC (S. aureus [10]; 20% plasma in MHB): 32 mg/L (≈ 154 µM) | MIC (S. aureus [10]; 50% plasma in MHB): 128 mg/L (≈ 618 µM) | MIC (S. aureus [10]; 100% plasma in MHB): 128 mg/L (≈ 618 µM) | MIC (Streptococcus pyogenes): 256 mg/L (≈ 1240 µM) | MIC (Streptococcus pyogenes; 0% plasma in MHB, read-out: MIC): 4 mg/L (≈ 19.3 µM) | MIC (Streptococcus pyogenes; 1% plasma in MHB, read-out: MIC): 4 mg/L (≈ 19.3 µM) | MIC (Streptococcus pyogenes; 2.5% plasma in MHB, read-out: MIC): 8 mg/L (≈ 38.6 µM) | MIC (Streptococcus pyogenes; 5% plasma in MHB, read-out: MIC): 8 mg/L (≈ 38.6 µM) | MIC (Streptococcus pyogenes; 10% plasma in MHB, read-out: MIC): 16 mg/L (≈ 77.2 µM) | MIC (Streptococcus pyogenes; 20% plasma in MHB, read-out: MIC): 32 mg/L (≈ 154 µM) | MIC (Streptococcus pyogenes; 50% plasma in MHB, read-out: MIC): 64 mg/L (≈ 309 µM) | MMC (Trichophyton rubrum): 256 µg/mL | MIC (Trichophyton rubrum; Trichophyton rubrum, 168 h): 1 mg/L (≈ 4.83 µM) | Suppression of Growth (+/−) (Escherichia coli B-683): + | Blood Level of Compound (1), Mean ([11]; 1250 mg/kg, 4 + 8 h): 27 µg/mL | concentration at 4 h ([11]; 500 mg/kg, 500 mg/kg fasted): 12 µg/mL | concentration at 8 h ([11]; 500 mg/kg, 500 mg/kg fasted): 14 µg/mL | concentration at 4 h ([11]; 500 mg/kg, 500 mg/kg fed): 8 µg/mL | concentration at 8 h ([11]; 500 mg/kg, 500 mg/kg fed): 17 µg/mL | concentration at 4 h ([11]; 1000 mg/kg, 1000 mg/kg fasted): 26 µg/mL | concentration at 8 h ([11]; 1000 mg/kg, 1000 mg/kg fasted): 21 µg/mL | oral dose reaching the blood ([11]; absorption from the gastrointestinal tract): approximately 2%
